Columns and labels:
[1] = skin sensitization test (LLNA method), OECD test guide line 429; assay type: in vivo; settings: for Stimulation Index (SI value): photopolymerizable monomers used in clear inks B to K, SI less than 3 = no problem in skin sensitization
Method: The LLNA method is a skin sensitization test specified as OECD test guide line 429, and as shown on page 55 in “Functional Materials” Vol. 25, No. 9 published in September, 2005, the skin sensitization is determined to have no problem when Stimulation Index (SI value) showing a degree of the skin sensitization is less than 3.

[2] = evaluation taken from MSDS; cited from earlier work

Compound | Stimulation Index (SI value) [1] | other results
C=CC(=O)OCC(C)(C)COC(=O)C=C [Neopentylglycol diacrylate, reference compound] |  | skin sensitization of photopolymerizable monomer (positive / negative grouping) ([1]; grouping printed in Table 1): Positive
Caprolactone-modified dipentaerythritolhexaacrylate |  | skin sensitization (from MSDS) [2]: Negative skin
Caprolactone-modified neopentylglycolhydroxypivalate ester | 0.9 | 
Polyethoxylated tetramethylolmethanetetraacrylate | 1.7 | 
Polyethyleneglycol#400 dimethacrylate | 1.3 | 
Polyethyleneglycol#600 dimethacrylate | 1.6 | 
Tricyclodecanedimethanoldimethacrylate | 1.3 | 
γ-butyrolactone methacrylate | 2.1 | 

— US8696101B2, “Photopolymerizable inkjet black ink, and ink cartridge, inkjet printer and printed material using the ink, and method of preparing the ink” (Ricoh Company, Ltd., priority 2011, dated 2014)
